Experimental data as given in patent US10808275B2, “Use of at least one chromogenic and/or fluorogenic phosphatase substrate for the detection and/or enumeration of enterobacteria in a sample” (BIOMERIEUX, priority 2013, dated 2020).

Tests used:
[1] = system: non-fermenting Gram-negative; test: Specificity of phosphatase substrates: growth and coloration of non-enterobacteria strains on chromogenic agar media; format: cell-based, non-fermenting Gram-negative bacteria; details: for coloration >= 1: % positive non-fermenting Gram-negative strains; for growth: non-fermenting Gram-negative strains grown / 7 tested
Procedure: (§1) 38 bacterial strains, among which 31 enterobacteria and 7 non-enterobacteria, were tested on media containing various phosphatase substrates. Readings of the dishes were then taken at 24 h.
(§2) Then phosphatase substrates are added as follows: • Medium 1: addition of X-phosphate (X-P) at 60 mg/l • Medium 2: addition of Rose-phosphate (Rose-P) at 300 mg/L • Medium 3: addition of Magenta-phosphate (Magenta-P) at 300 mg/L • Medium 4: addition of Purple-phosphate (Purple-P) at 200 mg/L
(§3) The media are divided into Petri dishes.
(§4) Inoculation is performed from 24 h pre-cultures at 30° C. or 37° C., depending on the species, on Trypticase-soy medium.
(§5) Suspension in 0.5 McF physiological water is performed, and then the strains are inoculated with a 10 μl calibrated oese.
(§6) Readings are taken after 24 h and 48 h of incubation at 37° C.
(§7) Colonies with coloration intensities greater than or equal to 1 were considered positive, applying the reading scale below.
(§8) Reading scale of enzymatic activity/coloration • 0=no activity • 0.5=very pale coloration • 1=low-intensity distinct coloration • 2=medium-intensity obvious coloration • 3=intense coloration present, • 4=highly intense coloration present.

[2] = system: enterobacteria; test: Specificity of phosphatase substrates: growth and coloration of enterobacteria strains on chromogenic agar media; format: cell-based; details: for coloration: % of enterobacteria strains coloured; for coloration >= 1: % of enterobacteria strains positive (intensity >= 1 on 0-4 reading scale); for growth: enterobacteria strains grown / 31 tested
Procedure: as §1, §2, §3, §4, §5, §6, §7, §8

Compound	coloration >= 1 ([1]; 24 h at 37° C.) [%]	coloration >= 1 ([1]; 48 h at 37° C.) [%]	growth ([1]; 24 h at 37° C.)	growth ([1]; 48 h at 37° C.)	sensitivity of the substrate compared with the other substrates ([2]; 24 h)	sensitivity of the substrate compared with the other substrates ([2]; 48 h)	coloration ([2]; 48 h at 37° C.) [%]	coloration >= 1 ([2]; 24 h at 37° C.) [%]	growth ([2]; 24 h at 37° C.)	growth ([2]; 48 h at 37° C.)
5-bromo-6-chloro-3-indoxyl-phosphate [Magenta-P]	0	0	5/7	7/7	most sensitive	largely identical	100	90	30/31	31/31
O=P(O)(O)Oc1c[nH]c2cc(Cl)ccc12 [Rose-P, 6-chloro-3-indoxyl-phosphate]	0	0	5/7	7/7	least sensitive	least sensitive	94	77	30/31	31/31
O=P(O)(O)Oc1c[nH]c2ccc(Br)c(Cl)c12 [X-P, 5-bromo-4-chloro-3-indoxyl-phosphate]	0	0	7/7	7/7	most sensitive	largely identical	97	90	30/31	31/31
